Experimental data: ChEMBL document CHEMBL4002612, “Study of antileishmanial activity of 2-aminobenzoyl amino acid hydrazides and their quinazoline derivatives” (Bioorg Med Chem Lett, 2017)

Columns and labels:
[1] = test system: Leishmania aethiopica; experiment: Antileishmanial activity against promastigote stage of Leishmania aethiopica assessed as parasite growth inhibition after 24 hrs by Alamar blue assay; assay type: functional
[2] = test system: Mus musculus; experiment: Acute toxicity in mouse assessed as change in kidney texture at 250 mg/kg/day administered as single dose via oral gavage by microscopic method; assay type: organism-based; details: in vivo
[3] = test system: Mus musculus; experiment: Acute toxicity in mouse assessed as change in spleen texture at 100 mg/kg, ip by microscopic method; assay type: organism-based; details: in vivo
[4] = test system: Mus musculus; experiment: Acute toxicity in mouse assessed as mortality at 25 to 250 mg/kg/day administered as single dose via oral gavage measured after 3 days; assay type: organism-based; details: in vivo, 72 h
[5] = test system: Mus musculus; experiment: Acute toxicity in mouse assessed as change in body weight at 25 to 250 mg/kg/day administered as single dose via oral gavage measured after 3 days; assay type: organism-based; details: in vivo, 72 h
[6] = test system: Mus musculus; experiment: Acute toxicity in mouse assessed as change in kidney texture at 100 mg/kg, ip by microscopic method; assay type: organism-based; details: in vivo
[7] = test system: Mus musculus; experiment: Acute toxicity in mouse assessed as change in liver texture at 100 mg/kg, ip by microscopic method; assay type: organism-based; details: in vivo
[8] = test system: Mus musculus; experiment: Acute toxicity in mouse assessed as change in spleen texture at 250 mg/kg/day administered as single dose via oral gavage by microscopic method; assay type: organism-based; details: in vivo
[9] = test system: Mus musculus; experiment: Acute toxicity in mouse assessed as mortality up to 100 mg/kg, ip after 7 days; assay type: organism-based; details: in vivo, 168 h
[10] = test system: Leishmania aethiopica; experiment: Potency index, ratio of mitefosine IC50 to test compound IC50 for promastigote stage of Leishmania aethiopica; assay type: functional
[11] = test system: Mus musculus; experiment: Acute toxicity in mouse assessed as change in liver texture at 250 mg/kg/day administered as single dose via oral gavage by microscopic method; assay type: organism-based; details: in vivo

SMILES: COC(=O)CNC(=O)c1ccccc1N
- IC50 [1]: 29.2 µM

SMILES: COC(=O)CCNC(=O)c1ccccc1N
- IC50 [1]: 26.4 µM

SMILES: COC(=O)CCCNC(=O)c1ccccc1N
- IC50 [1]: 17.3 µM

SMILES: COC(=O)CCCCCNC(=O)c1ccccc1N
- IC50 [1]: 21.3 µM

SMILES: NNC(=O)CCCCCNC(=O)c1ccccc1N
- Activity [2]: Non-Toxic
- Activity [3]: Non-Toxic
- Activity [4]: Non-Toxic
- Activity [5]: Non-Toxic
- Activity [6]: Non-Toxic
- Activity [7]: Non-Toxic
- Activity [8]: Non-Toxic
- Activity [9]: Non-Toxic
- IC50 [1]: 0.051 µM
- Ratio IC50 [10]: 154
- Activity [11]: Non-Toxic

SMILES: O=C(CNC(=O)c1ccccc1/N=C/c1ccc(Cl)cc1)N/N=C\c1ccc(Cl)cc1
- Activity [2]: Non-Toxic
- Activity [3]: Non-Toxic
- Activity [4]: Non-Toxic
- Activity [5]: Non-Toxic
- Activity [6]: Non-Toxic
- Activity [7]: Non-Toxic
- Activity [8]: Non-Toxic
- Activity [9]: Non-Toxic
- IC50 [1]: 0.052 µM
- Activity [11]: Non-Toxic

SMILES: O=C(CCCN1C(=O)c2ccccc2NC1c1ccco1)N/N=C/c1ccco1 (centres undefined)
- IC50 [1]: 10.4 µM

SMILES: O=C(CCCCCN1C(=O)c2ccccc2NC1c1ccc2c(c1)OCO2)N/N=C/c1ccc2c(c1)OCO2 (centres undefined)
- IC50 [1]: 9.33 µM

SMILES: O=C(CN1C(=O)c2ccccc2NC1c1ccc2c(c1)OCO2)N/N=C/c1ccc2c(c1)OCO2 (centres undefined)
- IC50 [1]: 12 µM

SMILES: O=C(N/N=C/c1ccc(Cl)cc1)C(Cc1ccccc1)N1C(=O)c2ccccc2NC1c1ccc(Cl)cc1 (centres undefined)
- IC50 [1]: 10.1 µM

SMILES: CC(C(=O)N/N=C/c1ccco1)N1C(=O)c2ccccc2NC1c1ccco1 (centres undefined)
- IC50 [1]: 10.7 µM

SMILES: COC(=O)C(Cc1ccccc1)NC(=O)c1ccccc1N (centres undefined)
- IC50 [1]: 15.6 µM

SMILES: NNC(=O)CNC(=O)c1ccccc1N
- Activity [2]: Non-Toxic
- Activity [3]: Non-Toxic
- Activity [4]: Non-Toxic
- Activity [5]: Non-Toxic
- Activity [6]: Non-Toxic
- Activity [7]: Non-Toxic
- Activity [8]: Non-Toxic
- Activity [9]: Non-Toxic
- IC50 [1]: 0.127 µM
- Activity [11]: Non-Toxic

SMILES: NNC(=O)C(Cc1ccccc1)NC(=O)c1ccccc1N (centres undefined)
- IC50 [1]: 2.9 µM

SMILES: CC(NC(=O)c1ccccc1N)C(=O)NN (centres undefined)
- Activity [2]: Non-Toxic
- Activity [3]: Non-Toxic
- Activity [4]: Non-Toxic
- Activity [5]: Non-Toxic
- Activity [6]: Non-Toxic
- Activity [7]: Non-Toxic
- Activity [8]: Non-Toxic
- Activity [9]: Non-Toxic
- IC50 [1]: 0.185 µM
- Activity [11]: Non-Toxic

SMILES: O=C(CCNC(=O)c1ccccc1/N=C/c1ccc(Cl)cc1)N/N=C/c1ccc(Cl)cc1
- IC50 [1]: 4.34 µM

SMILES: COC(=O)C(C)NC(=O)c1ccccc1N (centres undefined)
- IC50 [1]: 23 µM

SMILES: O=C(CCCCCN1C(=O)c2ccccc2NC1c1ccco1)N/N=C/c1ccco1 (centres undefined)
- IC50 [1]: 11.1 µM

SMILES: O=C(CCN1C(=O)c2ccccc2NC1c1ccccc1)N/N=C/c1ccccc1 (centres undefined)
- IC50 [1]: 12.6 µM

SMILES: COc1ccc(/C=N/NC(=O)CN2C(=O)c3ccccc3NC2c2ccc(OC)cc2)cc1 (centres undefined)
- IC50 [1]: 9.07 µM

SMILES: O=C(N/N=C/c1ccco1)C(Cc1ccccc1)N1C(=O)c2ccccc2NC1c1ccco1 (centres undefined)
- IC50 [1]: 9.05 µM

SMILES: C[C@@H]1[C@H](O)[C@@H](C)/C=C/C=C/C=C/C=C/C=C/C=C/C=C/[C@H](O[C@@H]2O[C@H](C)[C@@H](O)[C@H](N)[C@@H]2O)C[C@@H]2O[C@](O)(C[C@@H](O)C[C@@H](O)[C@H](O)CC[C@@H](O)C[C@@H](O)CC(=O)O[C@H]1C)C[C@H](O)[C@H]2C(=O)O.C[C@H](CCC(=O)O)[C@H]1CC[C@H]2[C@@H]3CC[C@@H]4C[C@H](O)CC[C@]4(C)[C@H]3C[C@H](O)[C@]12C
- IC50 [1]: 0.035 µM
